The text below walks through data of patent US20230346831A1, “METHODS FOR TREATING […] USING LOW DOSE CARBON MONOXIDE” (priority 2020, published 2023).

The subject of one assay is N134/RHAMM^B cells. Description: tail vein liver metastasis model. In kind it is in vivo. The conditions noted are these: 1.5 × 10^6 N134/RHAMM^B cells tail vein, NSG mice, 250 ppm CO 3 hours daily, 24 days. As for the experimental part:
NSG mice were injected with 0.1 million (FIGS. 3A-3B) or 5 × 10^4 (FIGS. 3C-3E) MDA-MB-231/TGL breast cancer cells through tail vein or 8988T/TGL pancreatic cancer cells through spleen (FIGS. 3F-3H). Mice were randomly divided into two groups after injection. One group of mice was kept in regular mouse holding room all the time while the other group was treated with 250 ppm CO for 3 hours daily starting one day after injection. FIGS. 3C and 3F: bioluminescent imaging was taken at day 0, day 1, day3 and then once a week and signals from the whole mice were plotted. FIGS. 3A, 3D and 3G: organs were harvested for histological analysis. Representative H&E stained images of metastatic tumors in the lung sections (FIGS. 3A and 3D) and in the liver sections (FIG. 3G) were shown. Metastatic tumor areas or numbers of mets on the H&E stained sections for each mouse were quantified (FIGS. 3B, 3E and 3H).
In another experiment, immunodeficient NOD/scid-IlL2Rgc knockout mice were injected with 1.5 × 10^6 N134/RHAMM^B cells in 120 µl PBS via tail veins. Tumors developed 24 days after injection with 1.5 × 10^6 N134/RHAMM^B cells, and livers were assessed.

A further assay relates to HCP1. Description: quantitative real-time reverse transcription PCR. In kind it is cell-based, human. The conditions noted are these: MCF7/TGL and MDA-MB-231/TGL cells; 250 ppm CO. As for the experimental part:
(§1) mRNA was isolated from cells (MCF7/TGL and MDA-MB-231/TGL) grown on 6-cm dishes using RNeasy mini kit (Qiagen, Hilden, Germany) containing gDNA Eliminator spin columns. cDNA was generated using the SuperScript III First-strand synthesis system with random hexamers (Invitrogen, Carlsbad, CA), and power SYBR green (Invitrogen, Carlsbad, CA)-based quantitative real-time PCR was performed using primer specific for HRG1 (human, forward: 5′- […] -3′ (SEQ ID NO: 1), reverse: 5′- […] -3′ (SEQ ID NO: 2)) or HCP1 (human forward: 5′- […] -3′ (SEQ ID NO: 3), reverse: 5′-[…] -3′ (SEQ ID NO: 4)), CYP1B1 (human, forward: 5′TGAGTGCCGTGTGTTTCGG -3′ (SEQ ID NO: 5), reverse: 5′-[…] -3′ (SEQ ID NO: 6)), SP1 (human, forward: 5′-GTGGCCGCTACCTTCACTG -3′ (SEQ ID NO: 7), reverse: 5′-GCCCCACTCCTACTTGGTC -3′ (SEQ ID NO: 8)) with the comparative CT method (ΔΔCT; ABI).
(§2) To investigate how CO reduces heme levels, whether CO decreased the transportation of heme into the cytosol was examined. […] Furthermore, heme oxygenases (HO-1, HO-2, and HO-3) cleave heme into 3 products: CO, ferrous ions (Fe2+), and biliverdin. […] Likewise, changes in protein levels of Bach 1 (a physiological repressor of HO-1 and a pro-metastatic transcription factor, whose degradation is reported to be mediated by heme in Nrf2-mutated lung cancer) was not detected (FIG. 4E). […]

A further assay concerns HRG1. In words: quantitative real-time reverse transcription PCR. In kind it is cell-based, human. The conditions noted are these: MCF7/TGL and MDA-MB-231/TGL cells; 250 ppm CO. As for the experimental part:
as §1, §2

For a further assay, the system named is FLVCR1. In words: expression of heme exporter. In kind it is cell-based, human. The following applies: MCF7/TGL and MDA-MB-231/TGL cells; with or without 250 ppm CO. From the text: To investigate how CO reduces heme levels, whether CO decreased the transportation of heme into the cytosol was examined. […] Furthermore, heme oxygenases (HO-1, HO-2, and HO-3) cleave heme into 3 products: CO, ferrous ions (Fe2+), and biliverdin. […] So, whether there was an increase of HO-1 expression by low-dose CO treatment that could contribute to heme degradation was examined. […] Likewise, changes in protein levels of Bach 1 (a physiological repressor of HO-1 and a pro-metastatic transcription factor, whose degradation is reported to be mediated by heme in Nrf2-mutated lung cancer) was not detected (FIG. 4E). […] Taken together, CO decreased heme importers to lower intracellular heme levels, which inhibited cancer cell migration.

For the molecule `[C-]#[O+]` [CO, Carbon monoxide], in the assay with N134/RHAMM^B cells, the “total metastatic pancreatic tumor burden in the liver” value is “showed a trend to reduce”. The liver metastases entry in the assay with N134/RHAMM^B cells (vs untreated controls) is “reduced”. For the same molecule, the “HCP1 mRNA expression” value in the assay on HCP1 is reported as “reduced”. Further, in the assay with HRG1, the “HRG1 mRNA expression” value is reported as “reduced”. For the same molecule, the “FLVCR1 (heme exporter) expression” value in the assay with FLVCR1 is “no significant/consistent changes”.
